This passage reports mutagenic call results from PubChem BioAssay AID1259407 (Chemical Carcinogenesis Research Information System (CCRIS), 2018).

This data set has as its system CCRIS mutagenicity, Ames/micronucleus/aberration tests. Description: CCRIS mutagenicity studies.
Setting [1] is: Test System: AMES SALMONELLA TYPHIMURIUM, Strain/Indicator: TA98, Metabolic Activation: NONE, Method: PREINCUBATION
Where [2] appears, read: Test System: AMES SALMONELLA TYPHIMURIUM, Strain/Indicator: TA98, Metabolic Activation: RAT, LIVER, S-9, AROCLOR 1254, Method: PREINCUBATION
Where [3] appears, read: Test System: AMES SALMONELLA TYPHIMURIUM, Strain/Indicator: TA100, Metabolic Activation: NONE, Method: PREINCUBATION
Where [4] appears, read: Test System: AMES SALMONELLA TYPHIMURIUM, Strain/Indicator: TA100, Metabolic Activation: RAT, LIVER, S-9, AROCLOR 1254, Method: PREINCUBATION
The mark [5] stands for this setting: Test System: AMES SALMONELLA TYPHIMURIUM, Strain/Indicator: TA1535, Metabolic Activation: NONE, Method: PREINCUBATION
The mark [6] stands for this setting: Test System: AMES SALMONELLA TYPHIMURIUM, Strain/Indicator: TA1537, Metabolic Activation: NONE, Method: PREINCUBATION

Activity calls are given as the source filed them. The rule behind the calls is not given here.

Take `Nc1ccc2c(c1)CN1C(=O)c3ccccc3C1=N2`: the mutagenic call (Test System: AMES SALMONELLA TYPHIMURIUM, Strain/Indicator: DJ400, Metabolic Activation: RAT, LIVER, S-9, AROCLOR 1254, Method: PREINCUBATION) was “active; positive”; the mutagenic call (Test System: AMES SALMONELLA TYPHIMURIUM, Strain/Indicator: DJ460, Metabolic Activation: RAT, LIVER, S-9, AROCLOR 1254, Method: PREINCUBATION) was “active; positive”; the mutagenic call (Test System: AMES SALMONELLA TYPHIMURIUM, Strain/Indicator: TA98(1,8-DNP6), Metabolic Activation: RAT, LIVER, S-9, AROCLOR 1254, Method: PREINCUBATION) was “active; positive”; the mutagenic call under setting [1] was “active; positive”; the mutagenic call under setting [2] is “active; positive”; the mutagenic call under setting [3] is “active; positive”. Also, the mutagenic call runs as follows: under setting [4], “active; positive”; (Test System: AMES SALMONELLA TYPHIMURIUM, Strain/Indicator: TA102, Metabolic Activation: NONE, Method: PREINCUBATION) “active; positive”; (Test System: AMES SALMONELLA TYPHIMURIUM, Strain/Indicator: TA102, Metabolic Activation: RAT, LIVER, S-9, AROCLOR 1254, Method: PREINCUBATION) “active; positive”; (Test System: AMES SALMONELLA TYPHIMURIUM, Strain/Indicator: TA1538(1,8-DNP6), Metabolic Activation: RAT, LIVER, S-9, AROCLOR 1254, Method: PREINCUBATION) “active; positive”; (Test System: AMES SALMONELLA TYPHIMURIUM, Strain/Indicator: TA1538, Metabolic Activation: RAT, LIVER, S-9, AROCLOR 1254, Method: PREINCUBATION) “active; positive”; (Test System: AMES SALMONELLA TYPHIMURIUM, Strain/Indicator: YG1012, Metabolic Activation: RAT, LIVER, S-9, AROCLOR 1254, Method: PREINCUBATION) “active; positive”. For the same compound, the mutagenic call was “active; positive” (Test System: AMES SALMONELLA TYPHIMURIUM, Strain/Indicator: YG1024, Metabolic Activation: RAT, LIVER, S-9, AROCLOR 1254, Method: PREINCUBATION); “active; positive” (Test System: UDS MOUSE HEPATOCYTES, Strain/Indicator: THY INCORP, Metabolic Activation: NONE, Method: AUTORADIOGRAPHY); “active; positive” (Test System: UDS RAT HEPATOCYTES, Strain/Indicator: THY INCORP, Metabolic Activation: NONE, Method: AUTORADIOGRAPHY).

On to `CN(C)c1ccc(N=Nc2ccc(C=O)cc2)cc1`, for which the mutagenic call (Test System: AMES SALMONELLA TYPHIMURIUM, Strain/Indicator: TA98, Metabolic Activation: RAT, LIVER, S-9, POLYCHLORINATED BIPHENYLS, Method: PREINCUBATION) was “active; positive” and the mutagenic call (Test System: AMES SALMONELLA TYPHIMURIUM, Strain/Indicator: TA100, Metabolic Activation: RAT, LIVER, S-9, POLYCHLORINATED BIPHENYLS, Method: PREINCUBATION) was “active; positive”.

Turning to `CN(C)C(=O)Nc1ccc(Cl)cc1`, the mutagenic call was “inactive; negative; precipitation occurred at all doses” (End Point: IN VITRO CHROMOSOMAL ABERRATIONS, Test System: CHINESE HAMSTER OVARY CELLS, Metabolic Activation: NONE); “active; positive; precipitation occurred at all doses” (End Point: IN VITRO CHROMOSOMAL ABERRATIONS, Test System: CHINESE HAMSTER OVARY CELLS, Metabolic Activation: RAT, LIVER, S-9, AROCLOR 1254); “inactive; negative” (Test System: AMES SALMONELLA TYPHIMURIUM, Strain/Indicator: TA98, Metabolic Activation: HAMSTER, LIVER, S-9, AROCLOR 1254, Method: PREINCUBATION); “inactive; negative” under setting [1]; “inactive; negative” under setting [2]; “inactive; negative” (Test System: AMES SALMONELLA TYPHIMURIUM, Strain/Indicator: TA100, Metabolic Activation: HAMSTER, LIVER, S-9, AROCLOR 1254, Method: PREINCUBATION). Moreover, the mutagenic call is “inactive; negative” under setting [3]; “inactive; negative” under setting [4]; “inactive; negative” (Test System: AMES SALMONELLA TYPHIMURIUM, Strain/Indicator: TA1535, Metabolic Activation: HAMSTER, LIVER, S-9, AROCLOR 1254, Method: PREINCUBATION); “inactive; negative” under setting [5]; “inactive; negative” (Test System: AMES SALMONELLA TYPHIMURIUM, Strain/Indicator: TA1535, Metabolic Activation: RAT, LIVER, S-9, AROCLOR 1254, Method: PREINCUBATION); “inactive; negative” (Test System: AMES SALMONELLA TYPHIMURIUM, Strain/Indicator: TA1537, Metabolic Activation: HAMSTER, LIVER, S-9, AROCLOR 1254, Method: PREINCUBATION). Further, the mutagenic call was “inactive; negative” under setting [6] and “inactive; negative” (Test System: AMES SALMONELLA TYPHIMURIUM, Strain/Indicator: TA1537, Metabolic Activation: RAT, LIVER, S-9, AROCLOR 1254, Method: PREINCUBATION).

Consider `COc1ccc2c(c1)-c1c(OC)c(OC)cc3c1C(C2=O)N(C)CC3` (stereo not drawn), for which, for the setting “Test System: AMES SALMONELLA TYPHIMURIUM, Strain/Indicator: TA100, Metabolic Activation: RAT, LIVER, S-9, PHENOBARBITAL AND BETA-NAPHTHOFLAVONE, Method: PREINCUBATION”, the mutagenic call is “inactive; negative”.

For `CCOP(=O)(NC(C)C)Oc1ccccc1C(=O)OC(C)C` (stereo not drawn), the mutagenic call (Test System: AMES SALMONELLA TYPHIMURIUM, Strain/Indicator: TA98, Metabolic Activation: NONE, Method: STANDARD PLATE) is “active; positive”; the mutagenic call (Test System: AMES SALMONELLA TYPHIMURIUM, Strain/Indicator: TA98, Metabolic Activation: RAT, LIVER, S-9, Method: STANDARD PLATE) is “active; positive”; the mutagenic call (Test System: AMES SALMONELLA TYPHIMURIUM, Strain/Indicator: TA100, Metabolic Activation: NONE, Method: STANDARD PLATE) was “inactive; negative”; the mutagenic call (Test System: AMES SALMONELLA TYPHIMURIUM, Strain/Indicator: TA100, Metabolic Activation: RAT, LIVER, S-9, Method: STANDARD PLATE) was “inactive; negative”.

On to `CNCCS(=O)(=O)O`, for which the mutagenic call is, setting by setting: (Test System: AMES SALMONELLA TYPHIMURIUM, Strain/Indicator: TA98, Metabolic Activation: HAMSTER, LIVER, S-9, AROCLOR 1254 (10%), Method: PREINCUBATION) “inactive; negative”; under setting [1], “inactive; negative”; (Test System: AMES SALMONELLA TYPHIMURIUM, Strain/Indicator: TA98, Metabolic Activation: RAT, LIVER, S-9, AROCLOR 1254 (10%), Method: PREINCUBATION) “inactive; negative”; (Test System: AMES SALMONELLA TYPHIMURIUM, Strain/Indicator: TA100, Metabolic Activation: HAMSTER, LIVER, S-9, AROCLOR 1254 (10%), Method: PREINCUBATION) “inactive; negative”; under setting [3], “inactive; negative”; (Test System: AMES SALMONELLA TYPHIMURIUM, Strain/Indicator: TA100, Metabolic Activation: RAT, LIVER, S-9, AROCLOR 1254 (10%), Method: PREINCUBATION) “inactive; negative”. For the same compound, the mutagenic call by setting is: (Test System: AMES SALMONELLA TYPHIMURIUM, Strain/Indicator: TA1535, Metabolic Activation: HAMSTER, LIVER, S-9, AROCLOR 1254 (10%), Method: PREINCUBATION) “inactive; negative”; under setting [5], “inactive; negative”; (Test System: AMES SALMONELLA TYPHIMURIUM, Strain/Indicator: TA1535, Metabolic Activation: RAT, LIVER, S-9, AROCLOR 1254 (10%), Method: PREINCUBATION) “inactive; negative”; (Test System: AMES SALMONELLA TYPHIMURIUM, Strain/Indicator: TA1537, Metabolic Activation: HAMSTER, LIVER, S-9, AROCLOR 1254 (10%), Method: PREINCUBATION) “inactive; negative”; under setting [6], “inactive; negative”; (Test System: AMES SALMONELLA TYPHIMURIUM, Strain/Indicator: TA1537, Metabolic Activation: RAT, LIVER, S-9, AROCLOR 1254 (10%), Method: PREINCUBATION) “inactive; negative”.
